Experimental data as given in patent US20240343706A1, “PIPERIDINE-2,6-DIONE DERIVATIVES WHICH BIND TO CEREBLON, AND METHODS OF USE THEREOF” (Captor Therapeutics S.A., priority 2019, published 2024).

Experiments:
IKZF1 = IKZF1 degradation assay, H929 cell line (western blot densitometry); format: cell-based; settings: H929 cells; for % of protein reduction based on densitometry values, IKZF 1 (24 H): summary Table 10, 20 μM (some compounds 10 and 20 μM); for % of IKZF1 α protein reduction based on densitometry values: 24 h
Description: (§1) After primary and secondary Ab staining, the membranes were washed and signals developed. The densitometry analysis was implemented to obtain the numeric values used later in the protein level evaluation process.

CK1α = CK1α degradation assay, Kelly cell line (western blot densitometry); format: cell-based; settings: Kelly cells; for % of protein reduction based on densitometry values, CK1α (24 H): summary Table 10, 20 μM (some compounds 10 and 20 μM); for % of CK1α protein reduction, based on densitometry values: 24 h
Description: as §1

SALL4 = SALL4 degradation assay, Kelly cell line (western blot densitometry); format: cell-based; settings: Kelly cells; for % of protein reduction based on densitometry values, SALL4 (24 H): summary Table 10, 20 μM (some compounds 10 and 20 μM); for % of SALL4 protein reduction, based on densitometry values: 24 h
Description: as §1

[1] = target: CRBN-DDB1 protein complex (Homo sapiens, UniProt Q96SW2); test: Fluorescence polarization (FP) assay, displacement of Cy5-labelled thalidomide; settings: 25 nM CRBN-DDB1, 5 nM Cy5-labelled thalidomide, read-out: CRBN binding Ki
Method: CRBN-DDB1 protein complex was mixed with Cy5-labelled thalidomide and a compound to be tested (the “test compound”). […] The test solution was added to a 384-well assay plate.
The plate was spun-down (1 min, 1000 rpm, 22° C.) and then shaken using a VibroTurbulator for 10 min at room temperature (20-25° C.), with the frequency set to level 3. The assay plate with protein and the tracer was incubated for 60 min at room temperature (20-25° C.) prior to read-out with a plate reader.
The FP experiment was carried out with various concentrations of the test compounds in order to measure Ki values.

IKZF3 = IKZF3 degradation assay, H929 cell line (western blot densitometry); format: cell-based; settings: H929 cells; for % of IKZF3 protein reduction based on densitometry values, IKZF3 Band I / % of IKZF3 protein reduction based on densitometry values, IKZF3 Band II: 24 h; for % of protein reduction based on densitometry values, IKZF3 (24 H): summary Table 10, 10 and 20 μM

Chain of CRBN-DDB1 protein complex (Q96SW2 whole entry): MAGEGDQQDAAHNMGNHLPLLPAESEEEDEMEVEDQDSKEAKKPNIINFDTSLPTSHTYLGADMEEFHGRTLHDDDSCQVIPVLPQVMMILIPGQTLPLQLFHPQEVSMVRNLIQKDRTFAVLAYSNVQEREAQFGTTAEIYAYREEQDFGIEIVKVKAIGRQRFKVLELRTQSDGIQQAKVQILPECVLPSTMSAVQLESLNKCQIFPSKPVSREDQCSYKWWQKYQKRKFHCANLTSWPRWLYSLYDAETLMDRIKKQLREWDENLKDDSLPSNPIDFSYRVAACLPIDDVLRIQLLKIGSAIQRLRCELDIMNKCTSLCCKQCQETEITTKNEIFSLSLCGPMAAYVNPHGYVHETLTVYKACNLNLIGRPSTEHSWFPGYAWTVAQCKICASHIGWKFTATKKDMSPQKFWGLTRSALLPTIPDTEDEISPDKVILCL
Chain of CRBN-DDB1 protein complex (Q16531 whole entry partner): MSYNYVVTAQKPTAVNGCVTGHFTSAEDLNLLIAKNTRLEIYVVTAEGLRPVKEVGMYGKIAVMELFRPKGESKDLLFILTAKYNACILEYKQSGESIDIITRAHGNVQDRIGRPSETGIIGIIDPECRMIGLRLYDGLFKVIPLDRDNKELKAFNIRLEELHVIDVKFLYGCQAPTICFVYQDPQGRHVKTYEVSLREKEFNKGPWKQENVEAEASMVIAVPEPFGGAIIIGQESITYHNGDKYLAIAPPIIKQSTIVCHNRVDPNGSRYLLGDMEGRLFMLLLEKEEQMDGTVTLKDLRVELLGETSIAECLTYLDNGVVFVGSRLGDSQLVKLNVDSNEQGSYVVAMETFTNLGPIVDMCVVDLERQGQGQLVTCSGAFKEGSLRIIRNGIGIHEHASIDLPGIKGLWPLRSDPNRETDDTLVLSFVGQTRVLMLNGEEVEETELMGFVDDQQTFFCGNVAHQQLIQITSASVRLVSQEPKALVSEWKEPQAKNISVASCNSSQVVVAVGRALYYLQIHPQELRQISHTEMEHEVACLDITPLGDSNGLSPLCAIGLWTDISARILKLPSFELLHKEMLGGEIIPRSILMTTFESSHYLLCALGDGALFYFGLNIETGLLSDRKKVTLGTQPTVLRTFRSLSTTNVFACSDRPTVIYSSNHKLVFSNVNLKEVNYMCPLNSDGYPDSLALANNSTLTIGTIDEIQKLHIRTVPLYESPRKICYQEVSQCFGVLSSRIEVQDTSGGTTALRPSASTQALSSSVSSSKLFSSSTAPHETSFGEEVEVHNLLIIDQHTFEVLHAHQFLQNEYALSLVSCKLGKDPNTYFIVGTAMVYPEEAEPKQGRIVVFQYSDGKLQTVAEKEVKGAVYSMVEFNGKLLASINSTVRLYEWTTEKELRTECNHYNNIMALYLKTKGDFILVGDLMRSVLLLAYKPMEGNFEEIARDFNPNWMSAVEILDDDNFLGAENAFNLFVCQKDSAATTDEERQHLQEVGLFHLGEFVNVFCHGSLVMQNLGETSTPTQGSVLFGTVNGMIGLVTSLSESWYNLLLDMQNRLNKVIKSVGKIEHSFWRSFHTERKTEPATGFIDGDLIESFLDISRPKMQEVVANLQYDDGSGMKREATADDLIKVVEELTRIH

O=C1CCC(NC(=O)c2ccnc3cc[nH]c23)C(=O)N1 (stereo not drawn) [Compound 37, N-(2,6-dioxopiperidin-3-yl)-1H-pyrrolo[3,2-b]pyridine-7-carboxamide]
% of protein reduction based on densitometry values, IKZF 1 (24 H) (IKZF1): ≤25% (≤25% for 0-25% of IKZF1 protein reduction) | % of protein reduction based on densitometry values, CK1α (24 H) (CK1α): ≤25% (≤25% for 0-25% of CK1a protein reduction) | % of protein reduction based on densitometry values, SALL4 (24 H) (SALL4): ≤25% (≤25% for 0-25% of SALL4 protein reduction) | Ki [1]: 10 to 50 µM

O=C1CCC(NC(=O)c2cccc3[nH]c(C(F)F)nc23)C(=O)N1 (stereo not drawn) [Compound 23, 2-(difluoromethyl)-N-(2,6-dioxopiperidin-3-yl)-1H-benzo[d]imidazole-7-carboxamide]
% of protein reduction based on densitometry values, IKZF 1 (24 H) (IKZF1): ≤25% (≤25% for 0-25% of IKZF1 protein reduction) | % of protein reduction based on densitometry values, CK1α (24 H) (CK1α): ≤25% (≤25% for 0-25% of CK1a protein reduction) | % of protein reduction based on densitometry values, SALL4 (24 H) (SALL4): ≤25% (≤25% for 0-25% of SALL4 protein reduction) | Ki [1]: 1 to 10 µM

CC(C)Cc1nc2c(C(=O)NC3CCC(=O)NC3=O)cccc2[nH]1 (stereo not drawn) [Compound 24, N-(2,6-dioxopiperidin-3-yl)-2-isobutyl-1H-benzo[d]imidazole-7-carboxamide]
% of protein reduction based on densitometry values, IKZF 1 (24 H) (IKZF1): ≤25% (≤25% for 0-25% of IKZF1 protein reduction) | % of protein reduction based on densitometry values, CK1α (24 H) (CK1α): ≤25% (≤25% for 0-25% of CK1a protein reduction) | % of protein reduction based on densitometry values, SALL4 (24 H) (SALL4): ≤25% (≤25% for 0-25% of SALL4 protein reduction) | Ki [1]: 1 to 10 µM

O=C1CCC(NC(=O)c2cccc3cnsc23)C(=O)N1 (stereo not drawn) [Compound 50, N-(2,6-dioxopiperidin-3-yl)benzo[d]isothiazole-7-carboxamide]
% of IKZF1 α protein reduction based on densitometry values (IKZF1; 10 μM): ≤25% (≤25% for 0-25% of IKZF1 protein reduction) | % of IKZF1 α protein reduction based on densitometry values (IKZF1; 20 μM): ≤25% (≤25% for 0-25% of IKZF1 protein reduction) | % of protein reduction based on densitometry values, IKZF 1 (24 H) (IKZF1): ≤25% (≤25% for 0-25% of IKZF1 protein reduction) | % of CK1α protein reduction, based on densitometry values (CK1α; 10 μM): ≤25% (≤25% for 0-25% of CK1a protein reduction) | % of CK1α protein reduction, based on densitometry values (CK1α; 20 μM): ≤25% (≤25% for 0-25% of CK1a protein reduction) | % of protein reduction based on densitometry values, CK1α (24 H) (CK1α): ≤25% (≤25% for 0-25% of CK1a protein reduction) | % of SALL4 protein reduction, based on densitometry values (SALL4; 10 μM): ≤25% (≤25% for 0-25% of SALL4 protein reduction) | % of SALL4 protein reduction, based on densitometry values (SALL4; 20 μM): ≤25% (≤25% for 0-25% of SALL4 protein reduction) | % of protein reduction based on densitometry values, SALL4 (24 H) (SALL4): ≤25% (≤25% for 0-25% of SALL4 protein reduction) | Ki [1]: 1 to 10 µM | % of IKZF3 protein reduction based on densitometry values, IKZF3 Band I (IKZF3; 10 μM): ≤25% (≤25% for 0-25% of IKZF3 protein reduction) | % of IKZF3 protein reduction based on densitometry values, IKZF3 Band II (IKZF3; 10 μM): ≤25% (≤25% for 0-25% of IKZF3 protein reduction) | % of IKZF3 protein reduction based on densitometry values, IKZF3 Band I (IKZF3; 20 μM): ≤25% (≤25% for 0-25% of IKZF3 protein reduction) | % of IKZF3 protein reduction based on densitometry values, IKZF3 Band II (IKZF3; 20 μM): ≤25% (≤25% for 0-25% of IKZF3 protein reduction) | % of protein reduction based on densitometry values, IKZF3 (24 H) (IKZF3): ≤25% (≤25% for 0-25% of IKZF3 protein reduction)

COc1cc(C(=O)NC2CCC(=O)NC2=O)c2nc(C)[nH]c2c1 (stereo not drawn) [Compound 30, N-(2,6-dioxopiperidin-3-yl)-6-methoxy-2-methyl-1H-benzo[d]imidazole-4-carboxamide]
% of protein reduction based on densitometry values, IKZF 1 (24 H) (IKZF1): ≤25% (≤25% for 0-25% of IKZF1 protein reduction) | % of protein reduction based on densitometry values, CK1α (24 H) (CK1α): ≤25% (≤25% for 0-25% of CK1a protein reduction) | % of protein reduction based on densitometry values, SALL4 (24 H) (SALL4): ≤25% (≤25% for 0-25% of SALL4 protein reduction) | Ki [1]: < 1 µM | % of IKZF3 protein reduction based on densitometry values, IKZF3 Band I (IKZF3; 10 μM): ≤25% (≤25% for 0-25% of IKZF3 protein reduction) | % of IKZF3 protein reduction based on densitometry values, IKZF3 Band II (IKZF3; 10 μM): ≤25% (≤25% for 0-25% of IKZF3 protein reduction) | % of IKZF3 protein reduction based on densitometry values, IKZF3 Band I (IKZF3; 20 μM): ≤25% (≤25% for 0-25% of IKZF3 protein reduction) | % of IKZF3 protein reduction based on densitometry values, IKZF3 Band II (IKZF3; 20 μM): ≤25% (≤25% for 0-25% of IKZF3 protein reduction) | % of protein reduction based on densitometry values, IKZF3 (24 H) (IKZF3): ≤25% (≤25% for 0-25% of IKZF3 protein reduction)

Cc1nc2c(C(=O)NC3CCC(=O)NC3=O)cncc2[nH]1 (stereo not drawn) [Compound 35, N-(2,6-dioxopiperidin-3-yl)-2-methyl-3H-imidazo[4,5-c]pyridine-7-carboxamide]
% of IKZF1 α protein reduction based on densitometry values (IKZF1; 10 μM): ≤25% (≤25% for 0-25% of IKZF1 protein reduction) | % of IKZF1 α protein reduction based on densitometry values (IKZF1; 20 μM): ≤25% (≤25% for 0-25% of IKZF1 protein reduction) | % of protein reduction based on densitometry values, IKZF 1 (24 H) (IKZF1): ≤25% (≤25% for 0-25% of IKZF1 protein reduction) | % of CK1α protein reduction, based on densitometry values (CK1α; 10 μM): ≤25% (≤25% for 0-25% of CK1a protein reduction) | % of CK1α protein reduction, based on densitometry values (CK1α; 20 μM): ≤25% (≤25% for 0-25% of CK1a protein reduction) | % of protein reduction based on densitometry values, CK1α (24 H) (CK1α): ≤25% (≤25% for 0-25% of CK1a protein reduction) | % of SALL4 protein reduction, based on densitometry values (SALL4; 10 μM): ≤25% (≤25% for 0-25% of SALL4 protein reduction) | % of SALL4 protein reduction, based on densitometry values (SALL4; 20 μM): ≤25% (≤25% for 0-25% of SALL4 protein reduction) | % of protein reduction based on densitometry values, SALL4 (24 H) (SALL4): ≤25% (≤25% for 0-25% of SALL4 protein reduction) | Ki [1]: 1 to 10 µM | % of IKZF3 protein reduction based on densitometry values, IKZF3 Band I (IKZF3; 10 μM): ≤25% (≤25% for 0-25% of IKZF3 protein reduction) | % of IKZF3 protein reduction based on densitometry values, IKZF3 Band II (IKZF3; 10 μM): ≤25% (≤25% for 0-25% of IKZF3 protein reduction) | % of IKZF3 protein reduction based on densitometry values, IKZF3 Band I (IKZF3; 20 μM): ≤25% (≤25% for 0-25% of IKZF3 protein reduction) | % of IKZF3 protein reduction based on densitometry values, IKZF3 Band II (IKZF3; 20 μM): ≤25% (≤25% for 0-25% of IKZF3 protein reduction) | % of protein reduction based on densitometry values, IKZF3 (24 H) (IKZF3): ≤25% (≤25% for 0-25% of IKZF3 protein reduction)

O=C1CCC(NC(=O)c2cccc3c2NC(=O)C3)C(=O)N1 (stereo not drawn) [Compound 1, N-(2,6-dioxopiperidin-3-yl)-2-oxoindoline-7-carboxamide]
% of protein reduction based on densitometry values, IKZF 1 (24 H) (IKZF1): ≤25% (≤25% for 0-25% of IKZF1 protein reduction) | % of protein reduction based on densitometry values, CK1α (24 H) (CK1α): ≤25% (≤25% for 0-25% of CK1a protein reduction) | % of protein reduction based on densitometry values, SALL4 (24 H) (SALL4): ≤25% (≤25% for 0-25% of SALL4 protein reduction) | Ki [1]: 10 to 50 µM

Cc1nc2c(C(=O)NC3CCC(=O)NC3=O)ccnc2[nH]1 (stereo not drawn) [Compound 36, N-(2,6-dioxopiperidin-3-yl)-2-methyl-3H-imidazo[4,5-b]pyridine-7-carboxamide]
% of protein reduction based on densitometry values, IKZF 1 (24 H) (IKZF1): ≤25% (≤25% for 0-25% of IKZF1 protein reduction) | % of protein reduction based on densitometry values, CK1α (24 H) (CK1α): ≤25% (≤25% for 0-25% of CK1a protein reduction) | % of protein reduction based on densitometry values, SALL4 (24 H) (SALL4): ≤25% (≤25% for 0-25% of SALL4 protein reduction) | Ki [1]: 1 to 10 µM

O=C1CCC(NC(=O)c2cccc3[nH]c(C(F)(F)F)nc23)C(=O)N1 (stereo not drawn) [Compound 25, N-(2,6-dioxopiperidin-3-yl)-2-(trifluoromethyl)-1H-benzo[d]imidazole-7-carboxamide]
% of protein reduction based on densitometry values, IKZF 1 (24 H) (IKZF1): ≤25% (≤25% for 0-25% of IKZF1 protein reduction) | % of protein reduction based on densitometry values, CK1α (24 H) (CK1α): ≤25% (≤25% for 0-25% of CK1a protein reduction) | % of protein reduction based on densitometry values, SALL4 (24 H) (SALL4): ≤25% (≤25% for 0-25% of SALL4 protein reduction) | Ki [1]: < 1 µM

Cc1nc2c(C(=O)NC3CCC(=O)NC3=O)cccc2[nH]1 (stereo not drawn) [Compound 15, N-(2,6-dioxopiperidin-3-yl)-2-methyl-1H-benzo[d]imidazole-4-carboxamide]
% of protein reduction based on densitometry values, IKZF 1 (24 H) (IKZF1): ≤25% (≤25% for 0-25% of IKZF1 protein reduction) | % of protein reduction based on densitometry values, CK1α (24 H) (CK1α): ≤25% (≤25% for 0-25% of CK1a protein reduction) | % of protein reduction based on densitometry values, SALL4 (24 H) (SALL4): ≤25% (≤25% for 0-25% of SALL4 protein reduction) | Ki [1]: < 1 µM | % of IKZF3 protein reduction based on densitometry values, IKZF3 Band I (IKZF3; 10 μM): ≤25% (≤25% for 0-25% of IKZF3 protein reduction) | % of IKZF3 protein reduction based on densitometry values, IKZF3 Band II (IKZF3; 10 μM): ≤25% (≤25% for 0-25% of IKZF3 protein reduction) | % of IKZF3 protein reduction based on densitometry values, IKZF3 Band I (IKZF3; 20 μM): ≤25% (≤25% for 0-25% of IKZF3 protein reduction) | % of IKZF3 protein reduction based on densitometry values, IKZF3 Band II (IKZF3; 20 μM): ≤25% (≤25% for 0-25% of IKZF3 protein reduction) | % of protein reduction based on densitometry values, IKZF3 (24 H) (IKZF3): ≤25% (≤25% for 0-25% of IKZF3 protein reduction)
